Some test systems named below: HCC-2998 colon; SW-620 colon; SR leukemia; DMS 114 small cell lung; RPMI-8226 leukemia; HCT-116 colon; SNB-75 CNS; OVCAR-5 ovarian; LXFL 529 NSCLC; M19-MEL melanoma.
What all share (test): NCI-60 cell line screen, 48 h

Where “and” joins values, the source holds several entries; their conditions need not be identical. Identical values can stand only once.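 In this assay, cells in 96-well plates receive the compound at five concentrations for 48 hours. Endpoints are linearly interpolated between the surrounding concentrations. Abbreviation: GI50, concentration required for 50% inhibition of growth. TGI is the concentration that stops growth completely.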 *1 amine or outer side, *2 acyl side, *3 side chain or, on linkers, in order; H or OH if unused. Where a SMILES comes first, the peptide text is derived from it. Bridges are numbered along the chain shown (N, C = ends). Roman numbers before positions name the chains, in order. X23 = CCCCCCCCCCCCCCC(=O)NC(CCCCN[*:2])C(=O)CN1CCCC1C(=O)[*:1]

For `O=C1NC2(NC(=O)C1=O)Nc1ccccc1S2`, the TGI was over 100 µM with HCC-2998 colon; over 46.1 µM in the experiment with SW-620 colon; 61.9 µM with SR leukemia; 79.8 µM in the experiment on DMS 114 small cell lung; 57.9 µM in the experiment with RPMI-8226 leukemia; 38.9 µM in the experiment with HCT-116 colon. The results for the TGI in the experiment on SNB-75 CNS, in the experiment on OVCAR-5 ovarian and in the experiment with LXFL 529 NSCLC were over 100 µM, over 100 µM and over 87.3 µM, respectively.

Turning to `COC[C@@H]1Cc2cc(OC)c3c(c2[C@H](c2ccc(OC)c(OC)c2)[C@H]1COC)OCO3`, the TGI in the experiment on HCC-2998 colon was over 100 µM; in the experiment with SW-620 colon, over 100 µM; in the experiment on SR leukemia, over 100 µM; in the experiment with DMS 114 small cell lung it was over 100 µM; in the experiment with HCT-116 colon, over 100 µM; with SNB-75 CNS it was 83.2 µM. The TGI in the experiment on OVCAR-5 ovarian, with M19-MEL melanoma and in the experiment on LXFL 529 NSCLC was over 100 µM each time.

On to `CC(C)(C)C(=O)CC(=O)C(F)(F)C(F)(F)C(F)(F)F.CC(C)(C)C(=O)CC(=O)C(F)(F)C(F)(F)C(F)(F)F.CC(C)(C)C(=O)CC(=O)C(F)(F)C(F)(F)C(F)(F)F.[Er]`, for which the GI50 with HCC-2998 colon is 43.5 µM. The TGI in the experiment on HCC-2998 colon, in the experiment with SW-620 colon, in the experiment with SR leukemia, in the experiment with RPMI-8226 leukemia, with HCT-116 colon and in the experiment on SNB-75 CNS was over 100 µM throughout. Further, the TGI in the experiment on OVCAR-5 ovarian was over 100 µM.

As to `CC(C)(C)OC(=O)N1CCCC1C(=O)NCCNc1ccc(NCCNC(=O)C2CCCN2C(=O)OC(C)(C)C)c2c1C(=O)c1ccccc1C2=O` (configuration not stated), the TGI in the experiment on HCC-2998 colon was 25.7 µM; in the experiment with SW-620 colon, 29.8 µM; in the experiment with SR leukemia, over 100 µM; in the experiment with RPMI-8226 leukemia, 0.0538 µM; in the experiment on HCT-116 colon, 26 µM; with SNB-75 CNS, 87.9 µM. The TGI in the experiment with OVCAR-5 ovarian came to 30.6 µM.

With `CN(CCNC(=O)c1cn(C)c2c1ccc1cc(Cl)ccc12)CCNC(=O)c1cn(C)c2c1ccc1cc(Cl)ccc12`, the TGI was determined as 40.5 µM in the experiment on SW-620 colon, 38 µM in the experiment with SR leukemia, 3.18 µM in the experiment on HCT-116 colon and 4.41 µM with OVCAR-5 ovarian.

On to `CCCCCCCCCCCCCCC(=O)NC(CCCCNC(=O)C1CCCN1C(=O)C(CCCCN)NC(=O)C(CCCCN)NC(=O)C(CCCCN)NC(=O)C(CCCNC(=N)N)NC(=O)C(CCCCN)NC(=O)C(N)C(C)C)C(=O)CN1CCCC1C(=O)NCC(=O)NC(Cc1ccccc1)C(=O)N1CCCC1C(=O)NC(CO)C(=O)NC(Cc1ccc(O)cc1)C(=O)NC(CCCCN)C(=O)NC(CC(C)C)C(=O)NC(CCCNC(=N)N)C(=O)N1CCCC1C(=O)NCC(N)=O` (configuration not stated) (I: GFPSYKLRPG-NH2 / II: H-VKRKKKP; linker I:N-II:C via X23; configuration not given here), for which the GI50 was 2.34 µM in the experiment with HCC-2998 colon; 30 µM with SW-620 colon; 11 µM with RPMI-8226 leukemia; 14.3 µM in the experiment on HCT-116 colon; 31.5 µM with SNB-75 CNS; 29.7 µM with OVCAR-5 ovarian. Further, the TGI was 8.59 µM in the experiment with HCC-2998 colon; over 100 µM with SW-620 colon; 30 µM in the experiment on RPMI-8226 leukemia; 33.1 µM with HCT-116 colon; 76.7 µM in the experiment with SNB-75 CNS; 74.9 µM in the experiment on OVCAR-5 ovarian.

On to `O=[P+](O)c1cccs1`, for which the TGI with SW-620 colon, in the experiment on DMS 114 small cell lung, in the experiment with RPMI-8226 leukemia, with HCT-116 colon, in the experiment on M19-MEL melanoma and in the experiment on LXFL 529 NSCLC was over 100 µM throughout.

In the case of `CC(=O)C1=C(C)N(c2ccc(C)cc2)C2(O)C=CC(=O)C3=C(O)c4ccccc4C(=O)C312` (configuration not stated), the TGI is 42.2 µM with HCC-2998 colon; over 100 µM in the experiment with SW-620 colon; over 100 µM in the experiment with SR leukemia; over 100 µM in the experiment with RPMI-8226 leukemia; over 100 µM in the experiment on HCT-116 colon; 49.9 µM in the experiment on SNB-75 CNS. Also, the TGI with OVCAR-5 ovarian was determined as 56.2 µM.

As for `CCOC(=O)c1c(SC)nc(-c2ccc(Cl)cc2)sc1=N`, the TGI in the experiment on HCC-2998 colon is 63.9 µM; with SW-620 colon, over 100 µM; in the experiment with RPMI-8226 leukemia, over 100 µM; in the experiment on HCT-116 colon it was 72 µM; in the experiment with SNB-75 CNS, 99.4 µM; in the experiment with OVCAR-5 ovarian it was over 100 µM.

Turning to `O=[N+]([O-])c1ccc(/C=N/n2c(CCc3n[nH]c(=S)n3/N=C/c3ccc([N+](=O)[O-])o3)n[nH]c2=S)o1`, the TGI is 33 µM with HCC-2998 colon; 32.7 µM in the experiment on SW-620 colon; 80.7 µM with SR leukemia; over 100 µM in the experiment on RPMI-8226 leukemia; 29 µM in the experiment on HCT-116 colon; over 100 µM in the experiment with OVCAR-5 ovarian.

As for `CC1C(O)[C@@]2(OC[C@@]34C(=O)CC5(O)[C@H](CCC6Cc7nc8c(nc7C[C@]65C)CC5CC[C@@H]6C7=C[C@H]9O[C@@]%10(O[C@@](C)(CO)C[C@@H]%10O)C(C)[C@@]9(O)[C@]7(C)[C@@H](O)CC6[C@]5(C)C8)C3=CC[C@H]4C2C)OC1(C)C` (some centres not stated), the TGI in the experiment on HCC-2998 colon was over 3.55 µM; in the experiment on SW-620 colon, 0.0433 µM; in the experiment on DMS 114 small cell lung, 0.0942 µM; in the experiment with RPMI-8226 leukemia it was under 0.000355 µM; in the experiment with HCT-116 colon, 0.542 µM; in the experiment with SNB-75 CNS, 0.215 µM. The TGI in the experiment with OVCAR-5 ovarian is 0.0795 µM; in the experiment with M19-MEL melanoma, over 3.55 µM.

For the compound `O=C1/C(=C/c2ccc3c(c2)OCO3)Sc2scc(-c3ccc(O)c(O)c3)[n+]21`, the TGI in the experiment on HCC-2998 colon amounted to 3.64 µM; in the experiment with RPMI-8226 leukemia, 4.42 µM; with HCT-116 colon it was 6.29 µM; with SNB-75 CNS it was 5.54 µM; in the experiment with OVCAR-5 ovarian it was 30.6 µM.

Consider `O=C1CSc2sc(=S)sc2S1`, for which the TGI in the experiment with HCC-2998 colon, in the experiment with SW-620 colon, in the experiment on DMS 114 small cell lung, with RPMI-8226 leukemia, with HCT-116 colon and with SNB-75 CNS was over 100 µM throughout. Besides, the TGI in the experiment on OVCAR-5 ovarian and in the experiment with M19-MEL melanoma was over 100 µM throughout.

Consider `CCc1cccc(C(C)C)c1NC1=C([n+]2ccc(C)cc2)C(=O)c2ccccc2C1=O`, for which the TGI in the experiment on HCC-2998 colon was 20.9 µM; in the experiment with SW-620 colon, over 100 µM; in the experiment on RPMI-8226 leukemia, 2.71 µM; in the experiment on HCT-116 colon, over 100 µM; with SNB-75 CNS it was 7.32 µM; in the experiment on OVCAR-5 ovarian, 23.2 µM.

Regarding `NS(=O)(=O)c1ccc(N=Nc2ccc(O)c(O)c2)cc1`, the TGI came to 41.3 µM in the experiment on HCC-2998 colon; 41.4 µM in the experiment with SW-620 colon; 48 µM in the experiment on SR leukemia; 39.7 µM with RPMI-8226 leukemia; 26.2 µM in the experiment with HCT-116 colon; 60.8 µM with SNB-75 CNS. The TGI in the experiment with OVCAR-5 ovarian was over 100 µM.

On to `O=NN(CCCl)C(=O)Nc1ccc(Cl)c(Cl)c1`, for which the TGI with HCC-2998 colon, with SW-620 colon, in the experiment on DMS 114 small cell lung, in the experiment with RPMI-8226 leukemia, in the experiment with HCT-116 colon and with SNB-75 CNS was over 100 µM throughout. Moreover, the TGI in the experiment on OVCAR-5 ovarian and with M19-MEL melanoma was over 100 µM throughout.

As to `OCCSCc1cc(Cl)cc(Cl)c1O`, the TGI with HCC-2998 colon, with SW-620 colon, in the experiment on RPMI-8226 leukemia, with HCT-116 colon and with OVCAR-5 ovarian was over 100 µM in each case.

In the case of `Nc1nccc2c1ncn2C1C=C(CO)C(O)C1O` (configuration not stated), the GI50 in the experiment on HCC-2998 colon is 3.28 µM; with SW-620 colon it was 0.775 µM; in the experiment with DMS 114 small cell lung, 2.18 µM; in the experiment with RPMI-8226 leukemia it was 243 µM; with SNB-75 CNS, over 1000 µM; in the experiment with M19-MEL melanoma, 7.78 µM. In the experiment on LXFL 529 NSCLC, the GI50 is over 1000 µM. Moreover, the TGI in the experiment with HCC-2998 colon was over 1000 µM; with SW-620 colon, over 1000 µM; in the experiment with DMS 114 small cell lung, over 1000 µM; in the experiment with RPMI-8226 leukemia it was over 1000 µM; with HCT-116 colon it was over 85.8 µM; in the experiment on SNB-75 CNS, over 1000 µM. Also, the TGI is over 54.1 µM in the experiment with OVCAR-5 ovarian, over 1000 µM in the experiment on M19-MEL melanoma and over 1000 µM in the experiment on LXFL 529 NSCLC.

With `COc1cc(CCC(=O)O)c2cc3ccccc3cc2c1O`, the TGI with HCC-2998 colon came out at 65.2 µM; in the experiment with SW-620 colon it was 51.5 µM; in the experiment with SR leukemia, 33.1 µM; with RPMI-8226 leukemia it was 26.4 µM; in the experiment on HCT-116 colon, 31 µM; with OVCAR-5 ovarian, 45.9 µM.

Consider `Cc1cc(O)c2cc3c(O)c(O)ccc3cc2c1`, for which the TGI was 16.4 µM in the experiment on HCC-2998 colon; over 28.9 µM in the experiment on SW-620 colon; 3.25 µM in the experiment on SR leukemia; over 100 µM in the experiment with RPMI-8226 leukemia; 8.95 µM with SNB-75 CNS; 13.5 µM in the experiment with OVCAR-5 ovarian.

Turning to `Cc1ccc(NC(=O)CC(=O)n2nc(-c3ccccc3)c(N=Nc3ccccc3C(=O)O)c2-c2ccccc2)cc1`, the TGI with HCC-2998 colon, in the experiment with SW-620 colon, with SR leukemia, in the experiment on RPMI-8226 leukemia, in the experiment on HCT-116 colon and in the experiment on OVCAR-5 ovarian was over 100 µM each time. Further, the TGI with M19-MEL melanoma and in the experiment with LXFL 529 NSCLC was over 100 µM in each case.

Consider `COc1cccc2c1C(=O)c1c(O)c3c(c(O)c1C2=O)C[C@@](O)(C(C)=O)C[C@@H]3OC1CC(N(C)C)C(O)C(C)O1` (some centres not stated), for which the TGI with HCC-2998 colon was 0.27 µM and 0.205 µM; in the experiment with SW-620 colon, 0.622 µM and 1.56 µM; in the experiment with DMS 114 small cell lung it was 0.302 µM and 0.274 µM; with RPMI-8226 leukemia, 0.23 µM and 1.92 µM; in the experiment on M19-MEL melanoma, 0.292 µM and 0.039 µM; in the experiment on LXFL 529 NSCLC it was 1 µM. Moreover, the GI50 with SW-620 colon is 0.00484 µM; in the experiment with SR leukemia it was 0.00237 µM; in the experiment on DMS 114 small cell lung, under 0.0199 µM; with RPMI-8226 leukemia it was under 0.0159 µM; in the experiment with HCT-116 colon it was 0.00225 µM; with SNB-75 CNS, 0.138 µM and 0.0219 µM. In addition, the GI50 in the experiment with OVCAR-5 ovarian is 0.0266 µM and 0.0147 µM.

Take `O=CN(O)CC(=O)O.[Ni]`: the TGI in the experiment with HCC-2998 colon, in the experiment on SW-620 colon, in the experiment with SR leukemia, in the experiment with RPMI-8226 leukemia, in the experiment on HCT-116 colon and in the experiment with SNB-75 CNS was over 100 µM in each case. The same compound returned a TGI in the experiment on OVCAR-5 ovarian of over 100 µM.

These data come from PubChem BioAssay (NCI).
